Experimental data from patent US7763619B2, “Compounds with 5-HT1A activity useful for treating disorders of the outer retina” (Alcon, Inc., priority 2000, dated 2010).
Structures can show the parent of a compound that is named as a salt.

Experiments:
Assay type in all cases: in vivo
[1] = test system: light-induced functional or morphological changes; experiment: Light damage paradigms (comparison compound classes)
[2] = test system: photo-oxidative induced retinopathy; experiment: Rat photo-oxidative induced retinopathy model: retinal morphology
Method: (§1) Neuroprotective Effects in the Rat Photo-Oxidative Induced Retinopathy Model
(§2) Induction of Photochemical Lesion. Photochemical lesions were induced in dark adapted rats (24 hour) by exposure to (220 fc) blue light (half-amplitude bandpass=435-475 nm) for 6 hours. Animals were allowed to recover for 5 days in darkness prior to electrodiagnostic evaluation of retinal function. Rats were single housed in clear polycarbonate cages during this light exposure.
Assessment of Retinal Morphology. Ocular tissues were obtained from control and drug or vehicle dosed rats and fixed by immersion into a mixture of 2% paraformaldehyde and 2% glutaraldehyde. Fixed eyeballs were dehydrated in an ascending ethanol series, embedded in JB-4 plastic resin, and 1 to 1.5-micron thick sections were analyzed using a quantitative computer image analysis system attached to the microscope. Retinal layer thickness (retinal pigment epithelium, RPE; outer nuclear layer thickness, ONL; inner nuclear layer thickness, INL; and length of photoreceptor inner and outer segments, IS+OS) was measured.
(§3) Subjects and Dosing. Male Sprague Dawley rats were randomly assigned to drug and vehicle experimental groups. Control rats were housed in their home cage under normal cyclic light exposure. All rats were dosed 48, 24 and 0 hours prior to a 6-hour blue-light exposure. Dosing was as follows:
(§4) Five rats were used as controls. Retinal protection was assessed by analyzing the ERG response and measuring changes in retinal morphology.
2.) Buspirone: For DNA quantitation, six rats per treatment group were dosed IP with vehicle or buspirone (0.5 and 1 mg/kg) prior to light exposure. Retinas from seven normal rats were used as controls. To evaluate changes in retinal morphology, rats were dosed (IP) with either vehicle (N=8) or buspirone (1.0 mg/kg [N=9]). Six rats were used as controls. Retinal protection was assessed by quantitating changes in retinal DNA and measuring changes in retinal morphology.

[3] = test system: photo-oxidative induced retinopathy; experiment: Rat photo-oxidative induced retinopathy model: electroretinogram (ERG)
[4] = test system: photo-oxidative induced retinopathy; experiment: as above; remark: listed apart in the source
Method: as §1
The retinal protective effect of these 5-HT1A agonists were evaluated in our photo-oxidative induced retinopathy paradigm.
as §2
Electrodiagnostic Evaluation. The electroretinogram (ERG) was recorded from anesthetized rats after a 24-hour dark-adaptation period. Rats were anesthetized by IP injection with Ketamine-HCl (75 mg/Kg) and Xylazine (6 mg/Kg). Flash ERGs recorded from a platinum-iridium wire loop electrode positioned on the cornea were elicited by viewing a ganzfeld. Electrical responses to a series of light flashes increasing in intensity were digitized to analyze temporal characteristics of the waveform and response voltage-log intensity (VlogI) relationship. Changes in the ERG a-wave are associated with photoreceptor and retinal pigment epithelium damage while damage to the inner retina is reflected in changes in the ERG b-wave.
as §3, §4
3.) SR-57746A: Rats were dosed (IP) with vehicle (N=15) or SR-57746A (0.5 mg/kg [N=5] or 1 mg/kg [N=15]). Eleven rats were used as controls. The ERG was analyzed after a 5-day recovery period to assess retinal protection.

[5] = test system: photo-oxidative induced retinopathy; experiment: Rat photo-oxidative induced retinopathy model: retinal DNA quantitation
Method: as §1, §2
Assessment of DNA Changes. Albino rats were euthanized by CO2 inhalation and individual retinas were frozen in separate tubes. Each retina had been sonicated in 0.8 ml (2.0 M NaCl, 50 mM NaPO4, pH 7.4, 2 mM EDTA) to yield a uniform homogenate, and stored frozen. Aliquots (0.1 ml) of each sample were diluted 10-fold with 2.0 M NaCl, 50 mM NaPO4. pH 7.4, 2 mM EDTA containing 1.1 μg/ml bisbenzimidazole (Hoechst 33258). A standard curve was constructed using calf thymus DNA from 0 to 25 μg/ml in the same buffer. Triplicate 0.2 ml aliquots of each retina sample and standard were pipetted into a 96 well plate for fluorescence measurements in the Cytofluor II. […]
2.) Buspirone: For DNA quantitation, six rats per treatment group were dosed IP with vehicle or buspirone (0.5 and 1 mg/kg) prior to light exposure. […] Retinal protection was assessed by quantitating changes in retinal DNA and measuring changes in retinal morphology.

[6] = 0.5 mg/kg SC 48, 24 and 0 h before 6-h blue light, 5-day recovery
[7] = 1.0 mg/kg SC 48, 24 and 0 h before 6-h blue light, 5-day recovery

Fc1ccc(C(c2ccc(F)cc2)N2CCN(C/C=C/c3ccccc3)CC2)cc1 [flunarizine]
Effect in preventing light-induced functional or morphological changes [1]: moderately effective

CCCN(CCC)C1CCc2cccc(O)c2C1 (stereo not shown) [8-OH-DPAT, 8-hydroxy-2-(di-n-propylamino)tetralin]
Lesions versus vehicle dosed rats ([2]; 0.5 mg/kg SC, 3-week recovery): not significantly different than lesions measured in vehicle dosed rats | ONL thickness reduction ([2]; 0.5 mg/kg SC, 3-week recovery): 53% | Photoreceptor segment length reduction ([2]; 0.5 mg/kg SC, 3-week recovery): 60% | RPE thickness reduction ([2]; 0.5 mg/kg SC, 3-week recovery): 34% | ONL thickness compared to vehicle dosed rats ([2]; 1.0 mg/kg SC, 3-week recovery): 2.4 fold | Photic lesions versus vehicle dosed rats ([2]; 1.0 mg/kg SC, 3-week recovery): significantly different from vehicle dosed rats | Photoreceptor segment length compared to vehicle dosed rats ([2]; 1.0 mg/kg SC, 3-week recovery): 2.9 times | RPE thickness compared to vehicle dosed rats ([2]; 1.0 mg/kg SC, 3-week recovery): 1.9 times | Maximum a- and b-wave response amplitudes versus vehicle dosed rats [3, 6]: not different than vehicle dosed rats | Maximum a- and b-wave response amplitudes, % of control amplitudes [3, 6]: approximately 27% | ERG reduction ([3]; 0.5 mg/kg SC, as restated with the morphometry): approximately 63% | Maximum a- and b-wave response amplitudes versus vehicle dosed rats [3, 7]: significantly higher than responses measured in vehicle dosed rats | Maximum a-wave response amplitude, % of normal [3, 7]: approximately 53% | Maximum b-wave response amplitude, % of normal [3, 7]: ~61% | ERG response amplitudes, % of normal ([3]; 1.0 mg/kg SC, as restated with the morphometry): greater than 50%

Cc1c(C)c2c(c(C)c1O)CC[C@@](C)(CCC[C@H](C)CCC[C@H](C)CCCC(C)C)O2 [α-tocopherol]
Effect in preventing light-induced functional or morphological changes [1]: ineffective

COCCOC(=O)C1=C(C)NC(C)=C(C(=O)OC(C)C)C1c1cccc([N+](=O)[O-])c1 (stereo not shown) [nimodipine]
Effect in preventing light-induced functional or morphological changes [1]: no effect

FC(F)(F)c1cccc(C2=CCN(CCc3ccc4ccccc4c3)CC2)c1 [SR-57746A, xaliproden hydrochloride]
Maximum a- and b-wave responses, % of controls ([4]; 0.5 mg/kg IP, 5-day recovery): 82% | Maximum a- and b-wave responses, % of normal ([4]; 1 mg/kg IP, 5-day recovery): 70% | Protection of retinal function ([4]; 0.5 and 1.0 mg/kg IP, light-exposed rats): Significant protection of retinal function

O=C1CC2(CCCC2)CC(=O)N1CCCCN1CCN(c2ncccn2)CC1 [buspirone]
Retinal DNA levels versus vehicle ([5]; 0.1 mg/kg IP): No significant differences | Retinal DNA levels versus vehicle and controls ([5]; 1 mg/kg IP): significantly higher than measured in vehicle dosed rats, but not significantly different than controls | ONL thickness ([2]; 1 mg/kg IP, 4-week recovery): 28.3 μ | ONL thickness versus normal rats ([2]; 1 mg/kg IP, 4-week recovery): no significant difference in ONL thickness
